In US20250228880A1, “REDOX-ACTIVE COMPOUNDS AND RELATED COMPOUNDS, COMPOSITIONS, METHODS AND SYSTEMS” (CALIFORNIA INSTITUTE OF TECHNOLOGY, priority 2008, published 2025):
“And” between values parts separate entries of the source, which are not always exact repeats. Equal entries are not always repeated. “Also recorded” adds a separate entry of the source. Where two headings read alike, the source gives them in different places.

Experiments:
[1] = tested on: P. aeruginosa PA14 Δphz mutant; assay: Anaerobic survival in bulk electrolysis bioreactor (viable cell counts, CFU); format: cell-based, Pseudomonas aeruginosa; details: for Support survival?: anaerobic survival of Δphz over 7 days, 10^9 cells/mL, 20 mM D-glucose, about 90 µM compound, electrode at +0.2 V vs. NHE, CFU on LB agar
Experimental: Microbiological methods. P. aeruginosa strain UCBPP-PA14 with deletions of two redundant phenazine biosynthetic operons phzA1-G1 and phzA2-G2, hereafter referred to as the Δphz mutant, was cultivated aerobically at 37° C. in Luria-Bertani (LB) broth (Fisher Scientific) to stationary phase. A washing procedure using centrifugation to collect cell pellets and vortexing to resuspend cell pellets in sterile PBS buffer (recipe) was repeated twice. For centrifugation, the cultures were split into 50 mL sterile centrifuge tubes and centrifuged for 8 minutes at 6000 g, at 4° C. After washing, cell culture was concentrated by resuspending pellets in PBS buffer with one-tenth of original cultural volume. Optical density of this culture was measured at 500 nm using Beckman Coulter D U 800 spectrophotometer. Dilution was performed to yield the OD reading below 0.8. The culture aliquots were then transferred into electrochemical cells with oxygen-free minimal salt medium (20 mM glucose as the carbon source) to serve as the cultures electrochemical studies (see next section for details).
Survival experiments in electrochemical setup. Electrochemical measurements were performed with a Gamry G- potentiostat. All experiments were conducted in an O2— and H2— free glovebox (MBraun) at 30° C. and in the dark. All measured potentials were referenced to a Ag/AgCl electrode (RE-5B, BASi). Reported potentials were referenced to the Normal Hydrogen Electrode NHE (V vs. NHE=V vs. Ag/AgCl+207 mV) to permit comparisons with other studies. A graphite rod (6.15 mm dia ×152 mm long, Alfa Aesar) was used as the working electrode, and the operating surface area was 6 cm^2. The counter electrode was made from a platinum mesh (Alfa Aesar) soldered to a copper wire. The working electrode was in a sample compartment together with the reference electrode. The counter electrode was in another compartment isolated from the working electrode. The two compartments were joined by a fritted glass junction. The controlled potential bulk electrolysis was set at 0 V vs. Ag/AgCl. This potential is mild enough to only oxidize reduced phenazines, but not other components in the cultural medium.
To test whether phenazine electron shuttling can help P. aeruginosa survive, 100 µM phenazine, 20 mM glucose, high or low initial cell densities in the range of 10^9 cells/mL or 10^7 cells/mL were added to the medium to give total 100 mL suspension in the compartment along with the working and reference electrodes, and the potential was applied at 0 V (vs. Ag/AgCl) for 7 days. Cell suspension aliquots were taken as a function of time for viable colony counts. Current and charge transferred were recorded continuously. Cultures without phenazine, or without the potential applied, or without both were served as the controls. To confirm that glucose is used as the carbon source in the case of survival, experiments with or without glucose addition were compared.
To investigate the effect of redox-active small molecules on anaerobic survival of redox active organisms, Applicants tested the effect of redox-active molecule in P. aeruginosa PA14. In particular, Applicants assembled bulk electrolysis-based glass bioreactors housed within an O2— and H2— free glovebox (MBraun) and controlled by a multichannel potentiostat (Gamry, Series G 300) outside the glovebox. Each bioreactor held a graphite rod working electrode (Alfa Aesar) with an operating surface area of 6 cm^2, a Ag/AgCl reference electrode (BASi, RE-5B) with a constant potential of +0.207 V vs. the normal hydrogen electrode (NHE), and about 100 mL MOPS culture medium [100 mM MOPS at pH 7.2, 93 mM NH4Cl, 43 mM NaCl, 2.2 mM KH2PO4, 1 mM MgSO4, […]](modified from ref. (Palmer, K. L., L. M. Mashburn, P. K. Singh, and M. Whiteley. 2005. Cystic fibrosis sputum supports growth and cues key aspects of Pseudomonas aeruginosa physiology. Journal of Bacteriology 187:5267-5277)). […]

[2] = tested on: P. aeruginosa PA14 Δphz mutant; assay: Reduction by PA14 (colour change in survival control experiments without poised potential); format: cell-based, Pseudomonas aeruginosa; details: intracellular reduction by Δphz cells
[3] = literature values (footnotes a, c, d, e); oxidized form; cited from earlier work
[4] = Reduction potential E0' (cyclic voltammetry); format: physicochemical; details: measured in aqueous solution at pH 7 in this study (footnote b)
[5] = tested on: Pseudomonas aeruginosa PA14 phenazine null mutant; assay: Colony morphology assay; format: cell-based; details: pyocyanin added to the growth medium (50 μM HPLC-purified, 1% tryptone, 1% agar plates)
Experimental: In particular, in FIG. 8 is shown how the phenazine null mutant forms smooth colonies in the presence of exogenous phenazines. […] Image was taken after 5 days.
Colony morphology assay: colony morphology assay was performed with Pseudomonas aeruginosa and Streptomyces coelicolor as described herein below: a) Pseudomonas aeruginosa PA 14: Strains were grown in LB medium to late exponential phase, then 10 μl were spotted onto 1% agar plates containing 10 g/L Tryptone Broth, supplemented with […] Congo Red and […] Coomassie Blue as described previously (L. Friedman, R. Kolter, Mot Microbial 51, 675 (2004)). Plates were incubated at room temperature. Colonies were imaged using an Epson Perfection 2400 Photo Scanner at 600 dpi resolution, Nikon stereomicroscope or a digital microscope (Proscope). b) Streptomyces coelicolor A3(2): 10 µl of a spore suspension in water was spotted onto plates with R5-medium. Plates were incubated at room temperature for six days. Colonies were imaged using a Nikon stereomicroscope.

Oc1cccc2nc3ccccc3nc12 [1-OHPHZ, 1-hydroxyphenazine]
Support survival? [1]: promote anaerobic survival and Yes
Reduction by PA14? [2]: Yes
E^0′ (vs. NHE) [3]: −174^a mV

O=C1c2ccc(S(=O)(=O)O)cc2C(=O)c2ccc(S(=O)(=O)O)cc21 [2,6-AQDS]
Support survival? [1]: No
Reduction by PA14? [2]: only a small portion of 2,6-AQDS was reduced; also recorded: Yes (very slowly)
E^0′ (vs. NHE) [3]: −184^d mV

O=C(O)Cc1cc(O)ccc1O [HMA, Homogentisic acid]
Support survival? [1]: cannot support Δphz survival and No

CN(C)c1ccc2nc3ccc(=[N+](C)C)cc-3sc2c1 [MB, Methylene blue]
Support survival? [1]: cannot support Δphz survival and No
drop of viable cells ([1]; regardless of bioreactor experimental conditions, 7 days): 3 orders of magnitude
E^0′ (vs. NHE) [4]: 0 mV
Reduction by PA14? [2]: reduced intracellularly and Yes
E^0′ (vs. NHE) [3]: +11 mV

O=C(O)c1cccc2nc3ccccc3nc12 [PCA, phenazine-1-carboxylic acid]
Support survival? [1]: promote anaerobic survival and Yes
Reduction by PA14? [2]: Yes
E^0′ (vs. NHE) [3]: −114^a mV

C[n+]1c2ccccc2nc2c([O-])cccc21 [PYO, Pyocyanin]
Support survival? [1]: promote anaerobic survival and Yes
survival vs. growth at low cell density ([1]; viable cells at 10^7 CFU/mL, data not shown): supported only survival but not growth
drop of viable cells from the original CFU ([1]; without D-glucose, with PYO and the poised potential, by day 6): 4 orders of magnitude
Reduction by PA14? [2]: Yes
colony morphology of the phenazine null mutant [5]: smooth compact colonies
E^0′ (vs. NHE) [3]: −40^a mV

C[n+]1ccc(-c2cc[n+](C)cc2)cc1 [Paraquat]
Support survival? [1]: No
Support survival? ([1]; listed as paraquat): cannot support anaerobic survival of Δphz
Reduction by PA14? [2]: No
Reduction by PA14? ([2]; listed as paraquat): cannot be reduced by Δphz
E^0′ (vs. NHE) [3]: −446 mV and −446^e mV
